Assay [1] addresses T1, Bromodomain-containing protein 9 (Homo sapiens) (UniProt Q9H8M2).
T1 sequence (whole entry): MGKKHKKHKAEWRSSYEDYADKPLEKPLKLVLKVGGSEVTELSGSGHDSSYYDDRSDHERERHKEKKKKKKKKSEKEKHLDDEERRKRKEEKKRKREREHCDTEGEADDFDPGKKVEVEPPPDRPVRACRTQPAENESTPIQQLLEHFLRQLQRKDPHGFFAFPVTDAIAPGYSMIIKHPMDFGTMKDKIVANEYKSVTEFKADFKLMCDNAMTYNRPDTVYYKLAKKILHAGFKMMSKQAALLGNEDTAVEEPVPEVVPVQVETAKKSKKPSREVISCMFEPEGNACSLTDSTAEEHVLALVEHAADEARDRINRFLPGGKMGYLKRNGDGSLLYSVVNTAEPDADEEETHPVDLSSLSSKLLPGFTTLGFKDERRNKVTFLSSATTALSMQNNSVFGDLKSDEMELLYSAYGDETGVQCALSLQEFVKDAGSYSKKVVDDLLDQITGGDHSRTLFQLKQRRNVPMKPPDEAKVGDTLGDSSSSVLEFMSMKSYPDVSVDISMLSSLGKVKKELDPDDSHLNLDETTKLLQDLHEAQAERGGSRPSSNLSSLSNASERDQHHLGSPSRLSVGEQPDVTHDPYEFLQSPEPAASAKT
The experiment in a line: Binding affinity to human BRD9 assessed as change in melting temperature at 10 uM by differential scanning fluorimetry.

Assay [2] deals with T2, Bromodomain-containing protein 9 (Homo sapiens, UniProt Q9H8M2).
T2 sequence (Q9H8M2 whole entry): T1 sequence (whole entry)
The experiment in a line: Inhibition of human BRD9 by alpha screen assay. In general terms: In Alpha technology, singlet oxygen from a donor bead excites a nearby acceptor bead.

In assay [3] the target is T2, Bromodomain-containing protein 9. The experiment in a line: Binding affinity to human BRD9 by isothermal titration calorimetry.
In assay [4] the target is Bromodomain-containing protein 4 (Homo sapiens, UniProt O60885). The experiment in a line: Binding affinity to human BRD4 assessed as change in melting temperature at 10 uM by differential scanning fluorimetry. On the technique in general: DSF heats the sample and reads unfolding from a dye or from intrinsic fluorescence.
The target in assay [5] is T3, Bromodomain adjacent to zinc finger domain protein 2B (Homo sapiens, UniProt Q9UIF8). The experiment in a line: Inhibition of human BAZ2B by alpha screen assay.
Assay [6] concerns the target T4, Bromodomain-containing protein 7 (Homo sapiens) (UniProt Q9NPI1).
T4 sequence (whole entry): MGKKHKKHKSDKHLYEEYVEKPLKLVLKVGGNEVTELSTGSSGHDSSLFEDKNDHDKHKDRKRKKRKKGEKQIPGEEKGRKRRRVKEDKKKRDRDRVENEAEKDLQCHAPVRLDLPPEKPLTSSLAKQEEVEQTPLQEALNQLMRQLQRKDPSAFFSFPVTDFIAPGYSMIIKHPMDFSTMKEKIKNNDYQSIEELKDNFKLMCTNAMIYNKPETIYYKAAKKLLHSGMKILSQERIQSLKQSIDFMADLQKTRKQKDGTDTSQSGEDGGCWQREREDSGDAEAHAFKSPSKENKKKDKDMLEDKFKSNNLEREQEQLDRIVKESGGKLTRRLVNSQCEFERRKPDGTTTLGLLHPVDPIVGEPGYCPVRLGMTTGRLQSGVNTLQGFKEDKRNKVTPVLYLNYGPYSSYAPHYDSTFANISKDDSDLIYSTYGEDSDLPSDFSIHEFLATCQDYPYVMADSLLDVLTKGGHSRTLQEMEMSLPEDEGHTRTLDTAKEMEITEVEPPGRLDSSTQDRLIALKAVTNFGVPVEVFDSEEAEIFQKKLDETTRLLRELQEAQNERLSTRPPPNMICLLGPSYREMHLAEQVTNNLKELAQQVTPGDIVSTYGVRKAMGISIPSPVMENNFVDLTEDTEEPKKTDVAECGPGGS
The experiment in a line: Binding affinity to human BRD7 assessed as change in melting temperature at 10 uM by differential scanning fluorimetry.

For assay [7], the target named is Bromodomain-containing protein 2 (Homo sapiens) (UniProt P25440). In words: Binding affinity to human BRD2 at 10 uM by differential scanning fluorimetry.
Assay [8] has as its target Bromodomain-containing protein 3 (Homo sapiens) (UniProt Q15059). The experiment in a line: Binding affinity to human BRD3 at 10 uM by differential scanning fluorimetry.
Assay [9] deals with Bromodomain adjacent to zinc finger domain protein 2A (Homo sapiens) (UniProt Q9UIF9). The experiment in a line: Binding affinity to human BAZ2A at 10 uM by differential scanning fluorimetry.
Assay [10] deals with T3, Bromodomain adjacent to zinc finger domain protein 2B. In words: Binding affinity to human BAZ2B at 10 uM by differential scanning fluorimetry.
Assay [11] addresses CREB-binding protein (Homo sapiens) (UniProt Q92793). In words: Binding affinity to human CBP assessed as change in melting temperature at 10 uM by differential scanning fluorimetry.
Assay [12] deals with Nucleosome-remodeling factor subunit BPTF (Homo sapiens) (UniProt Q12830). In words: Binding affinity to human FALZ assessed as change in melting temperature at 10 uM by differential scanning fluorimetry.
Assay [13] deals with T1, Bromodomain-containing protein 9 (Homo sapiens). The experiment in a line: Inhibition of human BRD9 expressed in U2OS cells assessed as inhibition of BRD9-chromatin association after 24 hrs by FRAP assay in presence of pan-HDAC inhibitor SAHA. In kind it is cell-based.

Active and inactive are the calls of the source. The calls are words filed in the database; no cut-off is given here. Where only a bound is given, the exact number is not on record here.

T3 sequence (Q9UIF8 whole entry, the tested form may be a part): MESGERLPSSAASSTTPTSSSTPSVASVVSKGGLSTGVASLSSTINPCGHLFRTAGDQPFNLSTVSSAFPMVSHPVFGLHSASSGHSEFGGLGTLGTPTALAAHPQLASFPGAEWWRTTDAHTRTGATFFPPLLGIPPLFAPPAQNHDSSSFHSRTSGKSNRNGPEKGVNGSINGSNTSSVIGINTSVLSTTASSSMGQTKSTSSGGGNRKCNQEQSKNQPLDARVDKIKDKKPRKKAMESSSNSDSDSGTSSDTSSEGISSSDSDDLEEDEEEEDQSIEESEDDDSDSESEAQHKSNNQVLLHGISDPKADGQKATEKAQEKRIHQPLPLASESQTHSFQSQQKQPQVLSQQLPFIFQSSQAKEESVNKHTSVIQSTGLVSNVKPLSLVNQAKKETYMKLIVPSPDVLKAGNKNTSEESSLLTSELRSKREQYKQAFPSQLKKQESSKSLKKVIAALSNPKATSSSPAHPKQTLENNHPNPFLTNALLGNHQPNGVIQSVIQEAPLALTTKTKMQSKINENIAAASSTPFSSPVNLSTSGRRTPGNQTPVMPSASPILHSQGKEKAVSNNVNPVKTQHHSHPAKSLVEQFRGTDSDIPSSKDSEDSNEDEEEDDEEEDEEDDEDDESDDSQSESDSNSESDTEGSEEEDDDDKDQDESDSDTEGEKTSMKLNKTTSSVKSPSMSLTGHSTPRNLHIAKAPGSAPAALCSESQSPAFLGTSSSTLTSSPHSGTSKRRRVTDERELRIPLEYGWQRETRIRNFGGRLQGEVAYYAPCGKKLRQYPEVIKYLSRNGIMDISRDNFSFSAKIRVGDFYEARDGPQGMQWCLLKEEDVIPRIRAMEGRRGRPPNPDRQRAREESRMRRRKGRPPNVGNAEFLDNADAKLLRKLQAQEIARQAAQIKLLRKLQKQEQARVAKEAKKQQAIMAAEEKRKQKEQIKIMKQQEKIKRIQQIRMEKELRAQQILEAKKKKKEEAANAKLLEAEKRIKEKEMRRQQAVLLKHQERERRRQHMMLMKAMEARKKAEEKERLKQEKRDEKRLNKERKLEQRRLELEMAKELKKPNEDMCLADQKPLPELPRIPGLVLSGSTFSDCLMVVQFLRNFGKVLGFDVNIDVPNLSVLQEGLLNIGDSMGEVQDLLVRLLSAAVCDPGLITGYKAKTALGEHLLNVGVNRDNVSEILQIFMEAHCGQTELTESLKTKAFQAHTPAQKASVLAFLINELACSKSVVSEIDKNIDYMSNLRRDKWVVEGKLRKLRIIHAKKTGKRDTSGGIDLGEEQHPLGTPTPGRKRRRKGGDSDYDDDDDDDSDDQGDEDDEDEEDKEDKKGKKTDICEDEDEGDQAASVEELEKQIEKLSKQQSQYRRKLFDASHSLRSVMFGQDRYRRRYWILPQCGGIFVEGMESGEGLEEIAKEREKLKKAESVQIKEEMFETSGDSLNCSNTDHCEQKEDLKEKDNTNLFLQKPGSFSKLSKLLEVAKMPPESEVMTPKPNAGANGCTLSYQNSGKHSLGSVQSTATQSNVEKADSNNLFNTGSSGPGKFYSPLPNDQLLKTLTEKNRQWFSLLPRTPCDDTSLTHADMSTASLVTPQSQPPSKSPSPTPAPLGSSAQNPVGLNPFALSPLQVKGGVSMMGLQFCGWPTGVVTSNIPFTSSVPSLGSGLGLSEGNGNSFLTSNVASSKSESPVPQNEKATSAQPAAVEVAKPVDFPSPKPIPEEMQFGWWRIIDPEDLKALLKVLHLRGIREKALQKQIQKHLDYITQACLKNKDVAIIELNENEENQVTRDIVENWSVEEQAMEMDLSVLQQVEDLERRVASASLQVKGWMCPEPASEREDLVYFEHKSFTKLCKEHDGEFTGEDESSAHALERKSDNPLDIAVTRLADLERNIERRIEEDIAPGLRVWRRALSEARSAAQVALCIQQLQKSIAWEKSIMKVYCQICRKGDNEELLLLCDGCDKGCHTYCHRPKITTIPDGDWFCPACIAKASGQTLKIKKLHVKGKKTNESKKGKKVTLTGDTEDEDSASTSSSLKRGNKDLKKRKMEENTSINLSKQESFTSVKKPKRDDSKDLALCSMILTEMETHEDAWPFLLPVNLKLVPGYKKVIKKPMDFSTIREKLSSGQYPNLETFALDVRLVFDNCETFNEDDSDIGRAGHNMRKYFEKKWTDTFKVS
Chain of CREB-binding protein (Homo sapiens) (Q92793 2-2442 limits assumed): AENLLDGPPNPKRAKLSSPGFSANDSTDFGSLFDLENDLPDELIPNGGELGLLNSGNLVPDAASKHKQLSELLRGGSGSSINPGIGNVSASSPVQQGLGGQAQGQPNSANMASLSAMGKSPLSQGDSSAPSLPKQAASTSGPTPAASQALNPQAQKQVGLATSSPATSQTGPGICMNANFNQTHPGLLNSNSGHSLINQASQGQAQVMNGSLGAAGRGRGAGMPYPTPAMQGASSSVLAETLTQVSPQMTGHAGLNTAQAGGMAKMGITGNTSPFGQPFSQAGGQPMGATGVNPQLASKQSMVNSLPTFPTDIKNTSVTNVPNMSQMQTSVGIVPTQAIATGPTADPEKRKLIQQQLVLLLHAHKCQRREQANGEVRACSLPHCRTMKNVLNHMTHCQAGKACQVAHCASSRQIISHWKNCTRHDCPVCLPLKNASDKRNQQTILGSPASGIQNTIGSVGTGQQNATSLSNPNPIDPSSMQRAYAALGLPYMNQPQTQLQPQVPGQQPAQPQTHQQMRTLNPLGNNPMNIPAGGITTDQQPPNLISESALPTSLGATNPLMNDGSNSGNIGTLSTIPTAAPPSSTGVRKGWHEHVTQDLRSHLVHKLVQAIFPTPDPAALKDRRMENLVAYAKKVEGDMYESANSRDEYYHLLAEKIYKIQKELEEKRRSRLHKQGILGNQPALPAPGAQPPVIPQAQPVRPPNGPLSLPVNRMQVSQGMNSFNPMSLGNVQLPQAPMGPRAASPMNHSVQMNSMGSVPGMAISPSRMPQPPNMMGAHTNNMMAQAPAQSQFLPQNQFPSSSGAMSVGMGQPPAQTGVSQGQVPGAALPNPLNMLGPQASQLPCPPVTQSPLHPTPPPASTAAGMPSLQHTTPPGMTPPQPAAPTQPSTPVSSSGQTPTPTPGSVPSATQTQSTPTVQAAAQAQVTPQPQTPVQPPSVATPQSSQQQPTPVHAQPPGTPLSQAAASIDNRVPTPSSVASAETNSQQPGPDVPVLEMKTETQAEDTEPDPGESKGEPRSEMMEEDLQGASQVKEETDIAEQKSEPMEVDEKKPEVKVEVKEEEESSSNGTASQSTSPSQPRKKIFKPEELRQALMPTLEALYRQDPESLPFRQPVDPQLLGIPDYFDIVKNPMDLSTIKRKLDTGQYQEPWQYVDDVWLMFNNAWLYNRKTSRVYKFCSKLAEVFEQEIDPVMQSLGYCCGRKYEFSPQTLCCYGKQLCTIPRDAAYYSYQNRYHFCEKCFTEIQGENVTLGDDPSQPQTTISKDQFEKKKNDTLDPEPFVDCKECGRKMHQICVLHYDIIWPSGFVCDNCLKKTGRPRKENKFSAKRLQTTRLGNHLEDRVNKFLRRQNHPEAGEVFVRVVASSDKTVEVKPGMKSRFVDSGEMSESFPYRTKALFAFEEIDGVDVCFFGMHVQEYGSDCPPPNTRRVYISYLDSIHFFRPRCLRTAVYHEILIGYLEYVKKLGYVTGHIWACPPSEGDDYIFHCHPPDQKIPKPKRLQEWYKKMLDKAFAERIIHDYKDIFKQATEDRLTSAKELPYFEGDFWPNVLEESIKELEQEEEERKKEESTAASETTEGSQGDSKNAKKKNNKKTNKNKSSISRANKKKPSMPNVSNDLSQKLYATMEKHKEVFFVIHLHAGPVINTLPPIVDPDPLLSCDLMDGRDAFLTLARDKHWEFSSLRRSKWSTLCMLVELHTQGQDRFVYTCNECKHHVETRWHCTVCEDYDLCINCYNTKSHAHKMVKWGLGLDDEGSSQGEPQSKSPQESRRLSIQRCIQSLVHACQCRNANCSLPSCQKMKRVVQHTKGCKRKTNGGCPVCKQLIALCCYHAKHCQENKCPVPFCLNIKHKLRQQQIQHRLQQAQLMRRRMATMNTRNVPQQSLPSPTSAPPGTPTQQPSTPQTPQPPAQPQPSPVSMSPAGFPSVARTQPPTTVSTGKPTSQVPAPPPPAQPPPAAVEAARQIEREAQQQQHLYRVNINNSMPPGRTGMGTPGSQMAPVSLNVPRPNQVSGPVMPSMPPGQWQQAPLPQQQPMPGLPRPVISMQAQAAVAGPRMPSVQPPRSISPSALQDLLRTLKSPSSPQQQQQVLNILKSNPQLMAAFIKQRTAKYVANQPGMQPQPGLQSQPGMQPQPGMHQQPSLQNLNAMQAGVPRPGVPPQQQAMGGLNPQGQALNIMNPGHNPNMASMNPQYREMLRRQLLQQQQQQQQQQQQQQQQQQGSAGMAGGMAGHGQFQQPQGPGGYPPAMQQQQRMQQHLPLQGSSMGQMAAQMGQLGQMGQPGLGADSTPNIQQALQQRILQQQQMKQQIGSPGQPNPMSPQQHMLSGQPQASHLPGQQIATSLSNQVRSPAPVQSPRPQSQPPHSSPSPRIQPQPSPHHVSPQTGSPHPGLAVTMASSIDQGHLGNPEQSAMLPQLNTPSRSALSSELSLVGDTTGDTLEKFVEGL

Regarding `CC(=O)c1cc(-c2cccc3nccn23)c2cc(N3CCOCC3)ccn12`, the ΔTm (usually the change in melting temperature against a reference sample) in [1] turned out to be 4.5 °C; in [4], 1.3 °C; in assay [6], 5.6 °C; in assay [11], 1.8 °C; in assay [12], 1.1 °C. Moreover, the IC50 (in general, the concentration that gives 50% inhibition) in assay [2] is 126 nM; in [5], > 100000 nM. Besides, the Kd (in general, the equilibrium constant for the complex coming apart) in [3] worked out at 68 nM. Besides, the result in assay [7], in assay [8], in assay [9] and in assay [10] was Active. Moreover, the inhibition entry in assay [13] was “Dose-dependent effect”.

The record behind these values is ChEMBL document CHEMBL3739345, “Design and synthesis of potent and selective inhibitors of BRD7 and BRD9 bromodomains” (Medchemcomm, 2015).
